Literature values in publication PMC11170759, “Advancing Parkinson’s Disease Diagnostics: The Potential of Arylpyrazolethiazole Derivatives for Imaging α-Synuclein Aggregates” (ACS Omega, 2024).

Test system: α-synuclein aggregates
Design: method as in PMID 34577548
Conditions: literature ligand of Figure 1; cited from earlier work

## c1ccc(-c2ccc(C3CC(c4ccc5c(c4)OCO5)=NN3)o2)cc1 (stereo not shown) [8b]
  reduction of ThT fluorescence: 94%
